Assay results as given in ChEMBL document CHEMBL1201862, “PubChem BioAssay data set” (2004).
Active and inactive are the calls of the source.

Key:
[1] = target: T1, Sentrin-specific protease 1 (Homo sapiens, UniProt Q9P0U3); test: SENP1 catalytic domain blockers, concentration series – biochemical, kinetic FRET, dose response (AID 651697); type: functional; settings: read-out: IC50_Mean
T1 sequence (Q9P0U3 whole entry): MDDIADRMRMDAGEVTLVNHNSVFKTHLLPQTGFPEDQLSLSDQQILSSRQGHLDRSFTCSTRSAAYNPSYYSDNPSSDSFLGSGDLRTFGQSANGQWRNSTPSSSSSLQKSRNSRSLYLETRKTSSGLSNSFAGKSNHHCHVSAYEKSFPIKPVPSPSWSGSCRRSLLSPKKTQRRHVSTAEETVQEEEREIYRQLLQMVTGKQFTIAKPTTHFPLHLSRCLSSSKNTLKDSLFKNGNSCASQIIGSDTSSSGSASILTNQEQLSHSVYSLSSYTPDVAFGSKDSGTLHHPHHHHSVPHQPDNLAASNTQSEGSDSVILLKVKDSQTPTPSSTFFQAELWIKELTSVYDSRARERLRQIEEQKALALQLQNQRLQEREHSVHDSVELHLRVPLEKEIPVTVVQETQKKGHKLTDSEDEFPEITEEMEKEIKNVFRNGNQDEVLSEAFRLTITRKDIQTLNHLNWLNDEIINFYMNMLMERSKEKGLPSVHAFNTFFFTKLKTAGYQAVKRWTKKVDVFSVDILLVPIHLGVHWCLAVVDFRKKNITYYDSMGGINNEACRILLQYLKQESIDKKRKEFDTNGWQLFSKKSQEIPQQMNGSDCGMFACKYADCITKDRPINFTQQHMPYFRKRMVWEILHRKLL

[2] = target: T1, Sentrin-specific protease 1; test: Dose response confirmation of small molecule inhibitors of the catalytic domain of the SUMO protease, SENP1 in a FRET assay.; type: functional; settings: read-out: IC50_Mean
Beta-lactamase [3] = target: Beta-lactamase (Salmonella choleraesuis (strain SC-B67), UniProt Q5J463)
Sequence of Beta-lactamase (Salmonella choleraesuis (strain SC-B67), UniProt Q5J463) (Q5J463 whole entry): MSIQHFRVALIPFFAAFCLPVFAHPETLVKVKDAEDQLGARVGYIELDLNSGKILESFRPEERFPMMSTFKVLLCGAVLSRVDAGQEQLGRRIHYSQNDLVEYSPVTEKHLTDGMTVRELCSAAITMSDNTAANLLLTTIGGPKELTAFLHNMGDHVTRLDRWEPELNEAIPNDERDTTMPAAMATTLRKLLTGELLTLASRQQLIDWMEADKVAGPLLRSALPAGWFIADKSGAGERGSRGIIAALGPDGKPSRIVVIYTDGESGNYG

Beta Lactamase = Beta Lactamase (Pseudomonas aeruginosa, UniProt Q932Y6);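 also: confirmatory high-throughput screen measuring VIM-2 metallo-beta-lactamase inhibition by epi-absorbance in dose response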
Sequence of Beta Lactamase (Q932Y6 whole entry): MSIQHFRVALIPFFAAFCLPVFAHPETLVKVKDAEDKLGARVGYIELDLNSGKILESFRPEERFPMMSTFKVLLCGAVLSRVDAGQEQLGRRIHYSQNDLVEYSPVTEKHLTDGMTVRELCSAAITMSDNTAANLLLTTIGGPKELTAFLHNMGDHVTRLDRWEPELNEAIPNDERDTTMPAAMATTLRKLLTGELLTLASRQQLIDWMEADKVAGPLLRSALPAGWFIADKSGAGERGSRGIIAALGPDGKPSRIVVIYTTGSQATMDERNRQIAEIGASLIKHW

Beta-lactamase [4] = target: Beta-lactamase (Pseudomonas aeruginosa, UniProt Q79MP6);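 also: biochemical dose-response test of metallo-beta-lactamase enzyme inhibition, read out by epi-absorbance; purified recombinant IMP-1 metallo-beta-lactamase with nitrocefin as substrate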
Sequence of Beta-lactamase (Pseudomonas aeruginosa, UniProt Q79MP6) (Q79MP6 whole entry): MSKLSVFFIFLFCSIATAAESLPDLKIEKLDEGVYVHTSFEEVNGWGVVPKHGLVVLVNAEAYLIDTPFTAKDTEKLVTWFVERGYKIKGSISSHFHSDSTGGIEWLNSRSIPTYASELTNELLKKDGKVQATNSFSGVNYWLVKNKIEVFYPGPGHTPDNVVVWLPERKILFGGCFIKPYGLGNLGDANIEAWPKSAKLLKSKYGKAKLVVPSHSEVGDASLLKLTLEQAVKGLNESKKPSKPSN

[5] = target: ATP-dependent translocase ABCB1 (Homo sapiens, UniProt P08183); test: inhibition of P-gp mediated JC-1 efflux – Jurkat-DNR cells, flow cytometry, dose response (AID 1689); type: functional
Sequence of ATP-dependent translocase ABCB1 (P08183 whole entry): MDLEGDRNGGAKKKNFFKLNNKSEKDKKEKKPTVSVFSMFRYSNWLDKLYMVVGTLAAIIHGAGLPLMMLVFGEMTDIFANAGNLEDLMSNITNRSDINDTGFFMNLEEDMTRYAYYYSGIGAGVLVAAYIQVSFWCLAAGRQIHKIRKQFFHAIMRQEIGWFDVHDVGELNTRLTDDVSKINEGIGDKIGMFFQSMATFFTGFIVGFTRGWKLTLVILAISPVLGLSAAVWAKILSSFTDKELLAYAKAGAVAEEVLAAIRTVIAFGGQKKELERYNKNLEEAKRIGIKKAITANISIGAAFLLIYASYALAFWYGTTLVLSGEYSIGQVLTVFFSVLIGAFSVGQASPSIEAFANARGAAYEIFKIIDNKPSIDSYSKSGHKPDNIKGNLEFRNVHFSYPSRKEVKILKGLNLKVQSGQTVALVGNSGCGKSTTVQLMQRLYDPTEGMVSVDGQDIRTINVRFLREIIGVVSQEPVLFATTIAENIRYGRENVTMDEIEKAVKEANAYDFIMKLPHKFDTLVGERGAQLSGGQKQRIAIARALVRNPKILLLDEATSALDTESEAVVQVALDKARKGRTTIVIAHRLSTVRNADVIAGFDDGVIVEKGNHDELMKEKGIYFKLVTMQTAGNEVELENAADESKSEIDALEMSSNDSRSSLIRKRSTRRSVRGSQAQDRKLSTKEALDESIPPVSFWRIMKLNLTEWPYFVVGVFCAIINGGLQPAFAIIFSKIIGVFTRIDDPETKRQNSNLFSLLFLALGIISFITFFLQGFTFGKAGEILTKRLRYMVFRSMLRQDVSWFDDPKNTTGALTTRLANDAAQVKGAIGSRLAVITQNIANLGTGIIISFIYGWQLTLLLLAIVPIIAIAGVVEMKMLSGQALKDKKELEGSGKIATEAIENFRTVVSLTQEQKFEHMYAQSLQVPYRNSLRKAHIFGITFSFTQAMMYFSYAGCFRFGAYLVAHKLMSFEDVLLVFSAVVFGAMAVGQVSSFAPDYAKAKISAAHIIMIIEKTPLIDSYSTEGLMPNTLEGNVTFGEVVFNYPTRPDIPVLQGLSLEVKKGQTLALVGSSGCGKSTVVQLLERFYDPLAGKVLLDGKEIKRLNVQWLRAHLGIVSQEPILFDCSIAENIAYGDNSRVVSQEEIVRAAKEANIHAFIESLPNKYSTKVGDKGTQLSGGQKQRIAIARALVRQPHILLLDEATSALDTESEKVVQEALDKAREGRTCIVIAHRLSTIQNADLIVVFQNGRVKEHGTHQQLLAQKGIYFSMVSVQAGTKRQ

[6] = target: Broad substrate specificity ATP-binding cassette transporter ABCG2 (Homo sapiens, UniProt Q9UNQ0); test: blockers of JC-1 export by ABCG2 – Ig-MXP3 cells, flow cytometry, dose response (AID 1690); type: functional
Sequence of Broad substrate specificity ATP-binding cassette transporter ABCG2 (Q9UNQ0 whole entry): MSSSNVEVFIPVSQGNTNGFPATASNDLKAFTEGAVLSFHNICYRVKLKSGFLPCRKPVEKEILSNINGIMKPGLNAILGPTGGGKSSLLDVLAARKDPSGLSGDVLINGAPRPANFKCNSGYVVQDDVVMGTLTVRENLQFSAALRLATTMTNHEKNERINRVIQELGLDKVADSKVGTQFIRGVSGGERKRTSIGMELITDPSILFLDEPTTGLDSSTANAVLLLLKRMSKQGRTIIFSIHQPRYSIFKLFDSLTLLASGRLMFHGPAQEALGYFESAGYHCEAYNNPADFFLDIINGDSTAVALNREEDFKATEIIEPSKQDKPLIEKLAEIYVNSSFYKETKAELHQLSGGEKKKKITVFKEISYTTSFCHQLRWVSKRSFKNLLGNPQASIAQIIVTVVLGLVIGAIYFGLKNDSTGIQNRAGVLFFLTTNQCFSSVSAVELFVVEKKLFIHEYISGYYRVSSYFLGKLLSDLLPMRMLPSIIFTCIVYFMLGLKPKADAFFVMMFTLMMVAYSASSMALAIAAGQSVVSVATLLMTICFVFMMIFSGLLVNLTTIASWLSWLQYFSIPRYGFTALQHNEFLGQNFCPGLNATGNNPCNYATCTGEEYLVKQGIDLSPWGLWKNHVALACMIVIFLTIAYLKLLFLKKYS

[7] = target: Adenosylmethionine-8-amino-7-oxononanoate aminotransferase (Mycobacterium tuberculosis, UniProt P9WQ81); test: Mycobacterium tuberculosis BioA enzyme inhibitor Measured in Biochemical System Using Plate Reader - 2163-02_Inhibitor_Dose_CherryPick_Activity.; type: functional, Mycobacterium tuberculosis UT205
Sequence of Adenosylmethionine-8-amino-7-oxononanoate aminotransferase (P9WQ81 whole entry): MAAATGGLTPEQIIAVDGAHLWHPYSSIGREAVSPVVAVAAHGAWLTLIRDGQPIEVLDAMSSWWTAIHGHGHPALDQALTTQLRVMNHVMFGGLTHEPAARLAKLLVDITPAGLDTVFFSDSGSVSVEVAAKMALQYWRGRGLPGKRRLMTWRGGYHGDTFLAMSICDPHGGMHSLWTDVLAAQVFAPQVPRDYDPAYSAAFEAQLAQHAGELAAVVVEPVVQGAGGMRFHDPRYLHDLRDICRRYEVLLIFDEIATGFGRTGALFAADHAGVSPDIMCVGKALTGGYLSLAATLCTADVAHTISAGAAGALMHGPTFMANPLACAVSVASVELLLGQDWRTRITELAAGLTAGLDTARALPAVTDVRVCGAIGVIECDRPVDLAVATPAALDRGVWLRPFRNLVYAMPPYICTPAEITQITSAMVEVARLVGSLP

Interleukin-8 [8] = target: T2, Interleukin-8 (Homo sapiens, UniProt P10145); test: Dose Response confirmation of uHTS small molecule hits for cystic fibrosis induced NFkb Inhibitors in a PAF-induced IL8 counterscreen.; type: functional; settings: read-out: IC50_Mean
T2 sequence (P10145 whole entry): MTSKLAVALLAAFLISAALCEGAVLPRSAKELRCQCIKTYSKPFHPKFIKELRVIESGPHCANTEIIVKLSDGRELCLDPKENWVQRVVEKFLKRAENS

Interleukin-8 [9] = target: T2, Interleukin-8; test: Dose Response confirmation of uHTS small molecule hits for cystic fibrosis induced NFkb Inhibitors in a TNFa-induced IL8 counterscreen.; type: functional; settings: read-out: IC50_Mean
[10] = target: T3, Mitochondrial peptide methionine sulfoxide reductase (Bos taurus, UniProt P54149); type: functional;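 also: absorbance read-out, biochemical high-throughput dose-response screen for MsrA inhibitors, confirmatory; recombinant bovine MsrA coupled to E. coli TrxB with NADPH and selenocystamine; potency is for inhibitors of MsrA activity on DMSO substrate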
T3 sequence (P54149 whole entry): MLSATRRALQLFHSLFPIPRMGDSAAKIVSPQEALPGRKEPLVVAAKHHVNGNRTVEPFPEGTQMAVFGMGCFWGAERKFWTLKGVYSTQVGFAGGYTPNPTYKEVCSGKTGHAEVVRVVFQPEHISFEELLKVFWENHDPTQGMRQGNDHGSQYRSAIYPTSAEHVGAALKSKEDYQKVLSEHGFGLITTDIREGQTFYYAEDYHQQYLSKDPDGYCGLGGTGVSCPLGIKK

## O=C1C2C(c3ccccc3)C=CC(c3ccccc3)C2C(=O)N1c1ccccn1 (stereo unspecified)
[1]
  IC50: 10.8 µM (active)
[2]
  IC50: 7.9 µM (active)
Beta-lactamase [3]
  IC50: > 59.6 µM (inactive)
Beta Lactamase
  IC50: 59.6 µM (inactive)
Beta-lactamase [4]
  IC50: 11.5 µM (inactive)

## COc1ccc(/C=N/NC(=O)c2ccccc2F)cc1CN1CCN(c2ccc(F)cc2)CC1
[5]
  EC50: 3.08 µM (active)
[6]
  EC50: 4.07 µM (active)

## COc1ccc(-c2ccc3c(c2)C2CC3CCN2)cc1 (stereo unspecified)
[7]
  AC50: 1.07 µM (active)

## CNc1ccc2ncc(-c3cccc(C(=O)N(C)C)c3)n2n1
Interleukin-8 [8]
  IC50: 2.04 µM (active)
Interleukin-8 [9]
  IC50: > 79 µM (inactive)

## O=C(O)c1cccc(N/N=C/c2sc(N3CCOCC3)nc2-c2ccccc2)c1
[10]
  IC50: 155 µM (inactive)
